Data on 1 compound can be found in article PMC7150935 (Toxins, 2020).

For assay [1], the system named is zebrafish αβδ nAChR. It counts as cell-based, zebrafish (Danio rerio).
Assay [2] has as its system zebrafish αβδ nAChR. In kind it is cell-based, zebrafish (Danio rerio). This is another data set of the same source.

SMILES strings stand for the structures. Entries after “also recorded” stand apart in the source; their conditions may differ. Where two headings read alike, the source gives them in different places. Bridge positions count the residues as written; N and C are the ends. Square brackets hold non-standard residues; d marks the D form. Peptide text beside a SMILES is read from it. pGlu = O=C1CC[C@@H](C(=O)O)N1

As for `CC[C@H](C)[C@@H]1NC(=O)[C@H](CC(C)C)NC(=O)[C@H](CCCNC(=N)N)NC(=O)[C@H](CC(=O)O)NC(=O)[C@H](CCCNC(=N)N)NC(=O)[C@H](Cc2ccccc2)NC(=O)[C@H](Cc2ccc(O)cc2)NC(=O)[C@H](CC(C)C)NC(=O)[C@@H]2CCCN2C(=O)[C@@H]2CSSC[C@@H](C(=O)O)NC(=O)[C@@H]3CSSC[C@H](NC(=O)[C@H](CCCCN)NC(=O)[C@@H]4CCC(=O)N4)C(=O)N[C@@H](CSSC[C@H](NC1=O)C(=O)N1CCC[C@H]1C(=O)N3)C(=O)N[C@@H](CO)C(=O)NCC(=O)NCC(=O)N[C@@H](CO)C(=O)N2` [αM-MIIIJ] ([pGlu]KCCSGGSCPLYFRDRLICPCC-OH; disulfide 3-21, 4-19, 9-22), in the assay on zebrafish αβδ nAChR [1], the “protection against α-BgTX block” value was “largely protected” and the “protection against α-EI block” value was “rapidly reversed upon toxin washout; also recorded: completely protected”. Also, in the assay on zebrafish αβδ nAChR [2], the “affinity of αβδ relative to αβδε and αβδγ” value is on record as “about a factor of two higher”; the koff – broadly, the first-order rate constant of dissociation – is 0.0417 s⁻¹; the “recovery of IACh on washout” value is on record as “recovered almost completely within a minute”; the reversibility of block result is listed as “readily reversible”. Further, the IC50 (commonly the midpoint of a concentration-inhibition curve) in the assay on zebrafish αβδ nAChR [2] (read-out: IC50) was determined as 33 nM. For the same compound, in the assay with zebrafish αβδ nAChR [2] (read-out: IC50 (range statement)), the IC50 is approximately 50 nM.
